Measured values published in US20090215710A1, “CARBOHYDRATE BASED TOLL-LIKE RECEPTOR (TLR) ANTAGONISTS” (RELIANCE LIFE SCIENCES PVT. LTD., priority 2007, published 2009).

What was measured:
TNF = test: Pre-screen for TNF inhibition activity of synthesized molecules (Table 1); type: cell-based
[1] = Cell viability in pre-screen (Table 1); type: cell-based

In the case of “2,3-Di-O-acetyl-4-O-chloroacetyl-6-O-levulinoyl-β-D-glucopyranosyl)-(1-3)-2-deoxy-2-trichloroacetamido-α/β-D-glucopyranoside [RSCL-0632]”, the “% TNF Inhibition” value (TNF; 1 uM) is reported as 0%, the “% TNF Inhibition” value (TNF; 10 uM) is reported as 0% and the “% TNF Inhibition” value (TNF; 50 uM) is reported as 0%. The “% TNF Inhibition” value (TNF; 100 uM) was 30%, the “% Viability” value ([1]; 1 uM) was 115% and the “% Viability” value ([1]; 10 uM) was 113%. For the same molecule, the “% Viability” value ([1]; 50 uM) was 94% and the “% Viability” value ([1]; 100 uM) was 84%.

For `COc1ccc(O[C@@H]2O[C@H](COC(C)=O)[C@@H](OC(C)=O)[C@H](OC(C)=O)[C@H]2OC(C)=O)cc1` [RSCL-0367, 1-O-(p-Methoxyphenyl)-2,3,4,6-tetra-O-acetyl-β-D-Glucopyranoside], the “% TNF Inhibition” value (TNF; 1 uM) was 0%, the “% TNF Inhibition” value (TNF; 10 uM) was 0% and the “% TNF Inhibition” value (TNF; 50 uM) was 0%. The “% TNF Inhibition” value (TNF; 100 uM) was 0%, the “% Viability” value ([1]; 1 uM) was 114% and the “% Viability” value ([1]; 10 uM) was 118%. For the same molecule, the “% Viability” value ([1]; 50 uM) was 105% and the “% Viability” value ([1]; 100 uM) was 116%.

With `COc1ccc(O[C@@H]2O[C@@H]3COC(c4ccccc4)O[C@H]3[C@H](O)[C@H]2O)cc1` (stereo partly drawn) [RSCL-0370, 1-O-(p-Methoxyphenyl)-4,6-O-benzylidene-β-D-glucopyranoside] the “% TNF Inhibition” value (TNF; 1 uM) was 0%, the “% TNF Inhibition” value (TNF; 10 uM) was 0% and the “% TNF Inhibition” value (TNF; 50 uM) was 0%. For the same molecule, the “% TNF Inhibition” value (TNF; 100 uM) was 16%, the “% Viability” value ([1]; 1 uM) was 115% and the “% Viability” value ([1]; 10 uM) was 120%. The “% Viability” value ([1]; 50 uM) was 108% and the “% Viability” value ([1]; 100 uM) was 107%.

In the case of `COc1ccc(O[C@@H]2O[C@H](COC(=O)CCC(C)=O)[C@@H](OC(=O)CCl)[C@H](OC(C)=O)[C@H]2OC(C)=O)cc1` [RSCL-0393, 1-O-(p-Methoxyphenyl)-2,3-di-O-acetyl-4-O-chloroacetyl-6-O-levulinoyl-β-D-glucopyranoside], the “% TNF Inhibition” value (TNF; 1 uM) is reported as 2%, the “% TNF Inhibition” value (TNF; 10 uM) is reported as 13% and the “% TNF Inhibition” value (TNF; 50 uM) is reported as 18%. The “% TNF Inhibition” value (TNF; 100 uM) was 76%, the “% Viability” value ([1]; 1 uM) was 84% and the “% Viability” value ([1]; 10 uM) was 85%. The “% Viability” value ([1]; 50 uM) was 81% and the “% Viability” value ([1]; 100 uM) was 86%.

With `COc1ccc(O[C@H]2O[C@@H]3COC(c4ccccc4)O[C@H]3[C@H](O)[C@H]2NC(=O)C(Cl)(Cl)Cl)cc1` (stereo partly drawn) [RSCL-0400, 1-O-(p-Methoxyphenyl)-2-deoxy-2-trichloroacetamido-4,6-O-benzylidene-α-D-glucopyranoside] the “% TNF Inhibition” value (TNF; 1 uM) was 0%, the “% TNF Inhibition” value (TNF; 10 uM) was 0% and the “% TNF Inhibition” value (TNF; 50 uM) was 0%. For the same molecule, the “% TNF Inhibition” value (TNF; 100 uM) was 0%, the “% Viability” value ([1]; 1 uM) was 93% and the “% Viability” value ([1]; 10 uM) was 82%. The “% Viability” value ([1]; 50 uM) was 70% and the “% Viability” value ([1]; 100 uM) was 63%.

In the case of `COc1ccc(O[C@H]2O[C@@H]3COC(c4ccccc4)O[C@H]3[C@H](O[C@@H]3O[C@H](COC(=O)CCC(C)=O)[C@@H](O)[C@H](OC(C)=O)[C@H]3OC(C)=O)[C@H]2NC(=O)C(Cl)(Cl)Cl)cc1` (stereo partly drawn) [RSCL-0440, p-Methoxy phenyl-O-(2,3-di-O-acetyl-6-O-levulinoyl-β-D-glucopyranosyl)-(1-3)-2-deoxy-2-trichloroacetamido-4,6-O-benzylidene-α D-glucopyranoside], the “% TNF Inhibition” value (TNF; 1 uM) is reported as 34%, the “% TNF Inhibition” value (TNF; 10 uM) is reported as 42% and the “% TNF Inhibition” value (TNF; 50 uM) is reported as 46%. The “% TNF Inhibition” value (TNF; 100 uM) was 47%, the “% Viability” value ([1]; 1 uM) was 114% and the “% Viability” value ([1]; 10 uM) was 115%. For the same molecule, the “% Viability” value ([1]; 50 uM) was 129% and the “% Viability” value ([1]; 100 uM) was 119%.

In the case of `COc1ccc(O[C@H]2O[C@@H]3COC(c4ccccc4)O[C@H]3[C@H](O[C@@H]3O[C@H](COC(=O)CCC(C)=O)[C@@H](OS(=O)(=O)O)[C@H](OC(C)=O)[C@H]3OC(C)=O)[C@H]2NC(=O)C(Cl)(Cl)Cl)cc1` (stereo partly drawn) [RSCL-0621, p-Methoxy phenyl-O-(2,3-di-O-acetyl-4-O-sulfo-6-O-levulinoyl-β-D-glucopyranosyl)-(1-3)-2-deoxy-2-trichloroacetamido-4,6-O-benzylidene-α-D-glucopyranoside], the “% TNF Inhibition” value (TNF; 1 uM) is reported as 36%, the “% TNF Inhibition” value (TNF; 10 uM) is reported as 38% and the “% TNF Inhibition” value (TNF; 50 uM) is reported as 49%. The “% TNF Inhibition” value (TNF; 100 uM) was 66%, the “% Viability” value ([1]; 1 uM) was 90% and the “% Viability” value ([1]; 10 uM) was 95%. For the same molecule, the “% Viability” value ([1]; 50 uM) was 98% and the “% Viability” value ([1]; 100 uM) was 96%.

For `COc1ccc(O[C@H]2O[C@@H]3COC(c4ccccc4)O[C@H]3[C@H](O[C@@H]3O[C@H](COC(=O)CCC(C)=O)[C@@H](OC(C)=O)[C@H](OC(C)=O)[C@H]3OC(C)=O)[C@H]2NC(=O)C(Cl)(Cl)Cl)cc1` (stereo partly drawn) [RSCL-0625, p-Methoxy phenyl-O-(2,3,4-tri-O-acetyl-6-O-levulinoyl-β-D-glucopyranosyl)-(1-3)-2-deoxy-2-trichloroacetamido-4,6-O-benzylidene-α-D-glucopyranoside], the “% TNF Inhibition” value (TNF; 1 uM) was 31%, the “% TNF Inhibition” value (TNF; 10 uM) was 27% and the “% TNF Inhibition” value (TNF; 50 uM) was 22%. For the same molecule, the “% TNF Inhibition” value (TNF; 100 uM) was 31%, the “% Viability” value ([1]; 1 uM) was 90% and the “% Viability” value ([1]; 10 uM) was 96%. The “% Viability” value ([1]; 50 uM) was 99% and the “% Viability” value ([1]; 100 uM) was 97%.

With `COc1ccc(O[C@H]2O[C@@H]3COC(c4ccccc4)O[C@H]3[C@H](O[C@@H]3O[C@H](CO)[C@@H](OC(C)=O)[C@H](OC(C)=O)[C@H]3OC(C)=O)[C@H]2NC(=O)C(Cl)(Cl)Cl)cc1` (stereo partly drawn) [RSCL-0626, p-Methoxy phenyl-O-(2,3,4-tri-O-acetyl-β-D-glucopyranosyl)-(1-3)-2-deoxy-2-trichloroacetamido-4,6-O-benzylidene-α-D-glucopyranoside] the “% TNF Inhibition” value (TNF; 1 uM) was 39%, the “% TNF Inhibition” value (TNF; 10 uM) was 43% and the “% TNF Inhibition” value (TNF; 50 uM) was 13%. The “% TNF Inhibition” value (TNF; 100 uM) was 52%, the “% Viability” value ([1]; 1 uM) was 97% and the “% Viability” value ([1]; 10 uM) was 92%. The “% Viability” value ([1]; 50 uM) was 95% and the “% Viability” value ([1]; 100 uM) was 89%.

For `CC(=O)CCC(=O)OC[C@H]1O[C@@H](O[C@H]2[C@@H]3OC(c4ccccc4)OC[C@H]3OC(O)[C@@H]2NC(=O)C(Cl)(Cl)Cl)[C@H](OC(C)=O)[C@@H](OC(C)=O)[C@@H]1OC(=O)CCl` (stereo partly drawn) [RSCL-0627, 2,3-Di-O-acetyl-4-O-chloroacetyl-6-O-levulinoyl-β-D-glucopyranosyl-(1-3)-2-deoxy-2-trichloroacetamido-4,6-O-benzylidene-α/β-D-glucopyranoside], the “% TNF Inhibition” value (TNF; 1 uM) was 0%, the “% TNF Inhibition” value (TNF; 10 uM) was 80% and the “% TNF Inhibition” value (TNF; 50 uM) was 104%. The “% TNF Inhibition” value (TNF; 100 uM) was 100%, the “% Viability” value ([1]; 1 uM) was 105% and the “% Viability” value ([1]; 10 uM) was 90%. For the same molecule, the “% Viability” value ([1]; 50 uM) was 33% and the “% Viability” value ([1]; 100 uM) was 13%.

For `COc1ccc(O[C@H]2O[C@@H]3COC(c4ccccc4)O[C@H]3[C@H](O[C@@H]3O[C@H](CO)[C@@H](O)[C@H](OC(C)=O)[C@H]3OC(C)=O)[C@H]2NC(=O)C(Cl)(Cl)Cl)cc1` (stereo partly drawn) [RSCL-0628, p-Methoxy phenyl-O-(2,3-di-O-acetyl-β-D-glucopyranosyl)-(1-3)-2-deoxy-2-trichloroacetamido-4,6-O-benzylidene-α-D-glucopyranoside], the “% TNF Inhibition” value (TNF; 1 uM) was 0%, the “% TNF Inhibition” value (TNF; 10 uM) was 92% and the “% TNF Inhibition” value (TNF; 50 uM) was 102%. For the same molecule, the “% TNF Inhibition” value (TNF; 100 uM) was 100%, the “% Viability” value ([1]; 1 uM) was 89% and the “% Viability” value ([1]; 10 uM) was 60%. The “% Viability” value ([1]; 50 uM) was 10% and the “% Viability” value ([1]; 100 uM) was 8%.

For `COc1ccc(O[C@H]2O[C@@H]3COC(c4ccccc4)O[C@H]3[C@H](O[C@@H]3O[C@H](CO)[C@@H](OC(=O)CCl)[C@H](OC(C)=O)[C@H]3OC(C)=O)[C@H]2NC(=O)C(Cl)(Cl)Cl)cc1` (stereo partly drawn) [RSCL-0629, p-Methoxy phenyl-O-(2,3-di-O-acetyl-4-O-chloroacetyl-β-D-glucopyranosyl)-(1-3)-2-deoxy-2-trichloroacetamido-4,6-O-benzylidene-α-D-glucopyranoside], the “% TNF Inhibition” value (TNF; 1 uM) was 0%, the “% TNF Inhibition” value (TNF; 10 uM) was 94% and the “% TNF Inhibition” value (TNF; 50 uM) was 102%. For the same molecule, the “% TNF Inhibition” value (TNF; 100 uM) was 100%, the “% Viability” value ([1]; 1 uM) was 99% and the “% Viability” value ([1]; 10 uM) was 57%. The “% Viability” value ([1]; 50 uM) was 13% and the “% Viability” value ([1]; 100 uM) was 11%.

With `COc1ccc(O[C@H]2O[C@@H]3COC(c4ccccc4)O[C@H]3[C@H](O[C@@H]3O[C@H](COC(=O)CCl)[C@@H](OC(C)=O)[C@H](OC(C)=O)[C@H]3OC(C)=O)[C@H]2NC(=O)C(Cl)(Cl)Cl)cc1` (stereo partly drawn) [RSCL-0630, p-Methoxy phenyl-O-(2,3,4-tri-O-acetyl-6-O-chloroacetyl-β-D-glucopyranosyl)-(1-3)-2-deoxy-2-trichloroacetamido-4,6-O-benzylidene-α-D-glucopyranoside] the “% TNF Inhibition” value (TNF; 1 uM) was 31%, the “% TNF Inhibition” value (TNF; 10 uM) was 36% and the “% TNF Inhibition” value (TNF; 50 uM) was 61%. The “% TNF Inhibition” value (TNF; 100 uM) was 0%, the “% Viability” value ([1]; 1 uM) was 95% and the “% Viability” value ([1]; 10 uM) was 88%. For the same molecule, the “% Viability” value ([1]; 50 uM) was 85% and the “% Viability” value ([1]; 100 uM) was 81%.

For `COc1ccc(OC2OC3COC(c4ccccc4)OC3C(OC3OC(COC(=O)CCl)C(OC(=O)CCl)C(OC(C)=O)C3OC(C)=O)C2NC(=O)C(Cl)(Cl)Cl)cc1` [RSCL-0631, p-Methoxy phenyl-O-(2,3-di-O-acetyl-4,6-di-O-chloroacetyl-β-D-glucopyranosyl)-(1-3)-2-deoxy-2-trichloroacetamido-4,6-O-benzylidene-α-D-glucopyranoside], the “% TNF Inhibition” value (TNF; 1 uM) was 77%, the “% TNF Inhibition” value (TNF; 10 uM) was 38% and the “% TNF Inhibition” value (TNF; 50 uM) was 92%. For the same molecule, the “% TNF Inhibition” value (TNF; 100 uM) was 99%, the “% Viability” value ([1]; 1 uM) was 95% and the “% Viability” value ([1]; 10 uM) was 70%. The “% Viability” value ([1]; 50 uM) was 20% and the “% Viability” value ([1]; 100 uM) was 8%.
